Measured values from the NIST ThermoML archive (doi:10.1021/je9006019).
Several values for one entry are separate records, joined by “and”; a condition that tells them apart may be missing. Identical values can stand only once. ± gives the expanded uncertainty stated by the source.

Assay: mn = molality of the nth substance listed, in mol/kg
Conditions: 101 kPa, Liquid; for viscosity: Capillary tube (Ostwald / Ubbelohde) method; for electrical conductivity: DIgital conductivity meter (306) of Systronics; for speed of sound: Pulse-echo method

CCCCCCCCCCCCOS(=O)(=O)[O-].[Na+] [sodium dodecyl sulfate] + O
Conditions	electrical conductivity [S/m]	mass density [kg/m3]	speed of sound	viscosity [mPa·s]
298.15 K, m1 = 0.001	–	–	1497.2 ± 1 m/s	–
298.15 K, m1 = 0.003	–	–	1497.5 ± 1 m/s	–
298.15 K, m1 = 0.005	–	–	1497.8 ± 1 m/s	–
298.15 K, m1 = 0.007	–	–	1497.9 ± 1 m/s	–
298.15 K, m1 = 0.008	–	–	1497.9 ± 1 m/s	–
298.15 K, m1 = 0.01	–	–	1498.1 ± 1 m/s	–
298.15 K, m1 = 0.02	–	–	1498.2 ± 1 m/s	–
298.15 K, m1 = 0.03	–	–	1498.4 ± 1 m/s	–
298.15 K, m1 = 0.05	1 ± 0.6	999.078 ± 0.43	1498.3 ± 1.3 m/s and 1498.3 ± 1 m/s	0.986 ± 0.01
298.15 K, m1 = 0.07	–	–	1498.2 ± 1 m/s	–
298.15 K, m1 = 0.1	2.6 ± 0.6	1000.97 ± 0.44	1498 ± 1.3 m/s	1.133 ± 0.012
298.15 K, m1 = 0.103	–	–	1498.2 ± 1 m/s	–
303.15 K, m1 = 0.001	–	–	1509.5 ± 1 m/s	–
303.15 K, m1 = 0.003	–	–	1509.8 ± 1 m/s	–
303.15 K, m1 = 0.005	–	–	1510.1 ± 1 m/s	–
303.15 K, m1 = 0.007	–	–	1510.1 ± 1 m/s	–
303.15 K, m1 = 0.008	–	–	1510.2 ± 1 m/s	–
303.15 K, m1 = 0.01	–	–	1510.3 ± 1 m/s	–
303.15 K, m1 = 0.02	–	–	1510.3 ± 1 m/s	–
303.15 K, m1 = 0.03	–	–	1510.4 ± 1 m/s	–
303.15 K, m1 = 0.05	–	–	1510.2 ± 1 m/s	–
303.15 K, m1 = 0.07	–	–	1509.9 ± 1 m/s	–
303.15 K, m1 = 0.103	–	–	1509.7 ± 1 m/s	–
308.15 K, m1 = 0.001	–	–	1520.1 ± 1 m/s	–
308.15 K, m1 = 0.003	–	–	1520.4 ± 1 m/s	–
308.15 K, m1 = 0.005	–	–	1520.6 ± 1 m/s	–
308.15 K, m1 = 0.007	–	–	1520.7 ± 1 m/s	–
308.15 K, m1 = 0.008	–	–	1520.7 ± 1 m/s	–
308.15 K, m1 = 0.01	–	–	1520.8 ± 1 m/s	–
308.15 K, m1 = 0.02	–	–	1520.8 ± 1 m/s	–
308.15 K, m1 = 0.03	–	–	1520.7 ± 1 m/s	–
308.15 K, m1 = 0.05	2.1 ± 0.6	995.942 ± 0.44	1520.3 ± 1 m/s and 1520.2 ± 1.3 m/s	0.79 ± 0.009
308.15 K, m1 = 0.07	–	–	1519.9 ± 1 m/s	–
308.15 K, m1 = 0.1	3.4 ± 0.6	997.734 ± 0.44	1519.1 ± 1.3 m/s	0.87 ± 0.01
308.15 K, m1 = 0.103	–	–	1519.3 ± 1 m/s	–
313.15 K, m1 = 0.001	–	–	1529 ± 1 m/s	–
313.15 K, m1 = 0.003	–	–	1529.3 ± 1 m/s	–
313.15 K, m1 = 0.005	–	–	1529.5 ± 1 m/s	–
313.15 K, m1 = 0.007	–	–	1529.5 ± 1 m/s	–
313.15 K, m1 = 0.008	–	–	1529.6 ± 1 m/s	–
313.15 K, m1 = 0.01	–	–	1529.7 ± 1 m/s	–
313.15 K, m1 = 0.02	–	–	1529.5 ± 1 m/s	–
313.15 K, m1 = 0.03	–	–	1529.4 ± 1 m/s	–
313.15 K, m1 = 0.05	–	–	1528.8 ± 1 m/s	–
313.15 K, m1 = 0.07	–	–	1528.2 ± 1 m/s	–
313.15 K, m1 = 0.103	–	–	1527.3 ± 1 m/s	–
